Data on two compounds can be found in ChEMBL document CHEMBL1201862, “PubChem BioAssay data set” (2004).

For one assay, the target named is Hexokinase (Trypanosoma brucei, UniProt Q38C41). Kind of assay: Confirmation assay for inhibitors of Trypanosoma brucei hexokinase 1-Analogue-first series. [Related pubchem assays (depositor defined):AID1430, AID1632, AID2516, AID2560, AID2579, AID2600, AID449725, AID492951]. It is filed as functional.
A further assay deals with T1, Caspase-3 (Homo sapiens, UniProt P42574).
T1 sequence (P42574 whole entry): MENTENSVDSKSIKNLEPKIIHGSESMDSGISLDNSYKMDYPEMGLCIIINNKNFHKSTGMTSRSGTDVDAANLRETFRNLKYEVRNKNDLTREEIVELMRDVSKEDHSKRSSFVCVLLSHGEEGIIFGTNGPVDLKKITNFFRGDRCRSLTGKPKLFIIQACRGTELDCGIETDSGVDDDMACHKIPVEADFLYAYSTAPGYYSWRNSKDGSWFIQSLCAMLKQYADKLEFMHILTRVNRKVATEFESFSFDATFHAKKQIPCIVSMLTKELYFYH
The format is functional.

The target in assay [1] is T2, Sentrin-specific protease 7 (Homo sapiens, UniProt Q9BQF6).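 Further: Luminescence-based dose-response confirmation of ultra-high-throughput screening hits, measuring inhibition of SENP7.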
T2 sequence (Q9BQF6 whole entry): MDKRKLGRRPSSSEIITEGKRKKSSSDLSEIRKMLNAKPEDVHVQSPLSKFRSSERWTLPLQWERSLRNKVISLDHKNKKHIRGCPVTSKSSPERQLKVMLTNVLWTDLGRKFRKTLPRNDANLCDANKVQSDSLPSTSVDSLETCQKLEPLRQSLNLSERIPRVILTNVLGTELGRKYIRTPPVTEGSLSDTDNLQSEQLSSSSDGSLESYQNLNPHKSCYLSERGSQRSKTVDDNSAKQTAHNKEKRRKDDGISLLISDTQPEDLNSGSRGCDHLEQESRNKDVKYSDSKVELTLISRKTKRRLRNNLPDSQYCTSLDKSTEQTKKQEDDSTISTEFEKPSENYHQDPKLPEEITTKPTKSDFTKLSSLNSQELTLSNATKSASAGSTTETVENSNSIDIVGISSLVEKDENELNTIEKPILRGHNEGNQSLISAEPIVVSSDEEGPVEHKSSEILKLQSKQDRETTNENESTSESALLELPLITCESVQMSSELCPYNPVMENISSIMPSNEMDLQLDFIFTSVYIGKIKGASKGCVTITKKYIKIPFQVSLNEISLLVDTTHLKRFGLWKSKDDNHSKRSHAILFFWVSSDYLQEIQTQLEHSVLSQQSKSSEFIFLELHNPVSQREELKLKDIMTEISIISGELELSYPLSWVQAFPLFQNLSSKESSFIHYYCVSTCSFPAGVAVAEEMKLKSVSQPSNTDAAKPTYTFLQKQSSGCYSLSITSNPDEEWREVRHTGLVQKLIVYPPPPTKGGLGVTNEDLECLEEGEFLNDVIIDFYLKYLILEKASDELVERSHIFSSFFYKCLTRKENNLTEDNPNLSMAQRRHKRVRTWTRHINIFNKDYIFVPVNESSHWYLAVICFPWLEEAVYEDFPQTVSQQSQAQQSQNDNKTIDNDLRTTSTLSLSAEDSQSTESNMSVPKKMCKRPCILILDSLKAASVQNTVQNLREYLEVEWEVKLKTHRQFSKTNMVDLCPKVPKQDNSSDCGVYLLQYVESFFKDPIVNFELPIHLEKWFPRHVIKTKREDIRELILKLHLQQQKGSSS
The format is functional.

Assay [2] has as its target T3, Sentrin-specific protease 6 (Homo sapiens, UniProt Q9GZR1).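 Further: Luminescence-based dose-response confirmatory assay of SENP6 inhibition, following up an ultra-high-throughput screen.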
T3 sequence (Q9GZR1 whole entry): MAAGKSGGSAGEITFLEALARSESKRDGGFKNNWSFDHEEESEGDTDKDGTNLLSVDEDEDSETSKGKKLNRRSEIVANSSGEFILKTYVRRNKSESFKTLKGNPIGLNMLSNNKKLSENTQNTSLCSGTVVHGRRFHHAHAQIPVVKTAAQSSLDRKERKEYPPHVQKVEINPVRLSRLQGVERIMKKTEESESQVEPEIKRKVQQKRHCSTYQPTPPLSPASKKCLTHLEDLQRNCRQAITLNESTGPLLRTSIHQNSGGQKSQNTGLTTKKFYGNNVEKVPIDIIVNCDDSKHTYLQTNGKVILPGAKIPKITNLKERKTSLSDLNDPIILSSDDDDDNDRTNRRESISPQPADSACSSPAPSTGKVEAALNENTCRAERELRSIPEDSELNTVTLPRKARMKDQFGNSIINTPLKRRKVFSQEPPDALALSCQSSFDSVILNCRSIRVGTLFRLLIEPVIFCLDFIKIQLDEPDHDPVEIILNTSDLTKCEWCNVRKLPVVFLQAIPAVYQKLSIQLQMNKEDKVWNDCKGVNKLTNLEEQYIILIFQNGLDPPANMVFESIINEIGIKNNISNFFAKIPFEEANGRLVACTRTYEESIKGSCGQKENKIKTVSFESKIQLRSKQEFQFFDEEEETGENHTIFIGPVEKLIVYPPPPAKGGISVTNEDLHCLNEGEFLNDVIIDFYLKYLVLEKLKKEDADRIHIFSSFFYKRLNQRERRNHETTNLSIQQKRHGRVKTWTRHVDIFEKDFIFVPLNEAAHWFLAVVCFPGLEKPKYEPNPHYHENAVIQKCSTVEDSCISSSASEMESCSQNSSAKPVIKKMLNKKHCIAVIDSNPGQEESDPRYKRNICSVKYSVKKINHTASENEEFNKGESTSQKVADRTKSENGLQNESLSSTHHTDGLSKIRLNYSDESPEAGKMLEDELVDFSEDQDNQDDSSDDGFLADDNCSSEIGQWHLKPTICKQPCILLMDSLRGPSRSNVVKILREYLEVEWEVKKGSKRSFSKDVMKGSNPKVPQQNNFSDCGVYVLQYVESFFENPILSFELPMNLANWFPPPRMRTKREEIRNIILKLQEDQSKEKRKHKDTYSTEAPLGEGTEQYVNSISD
It is filed as functional.

Assay [3] deals with T4, Sentrin-specific protease 8 (Homo sapiens, UniProt Q96LD8).
T4 sequence (Q96LD8 whole entry): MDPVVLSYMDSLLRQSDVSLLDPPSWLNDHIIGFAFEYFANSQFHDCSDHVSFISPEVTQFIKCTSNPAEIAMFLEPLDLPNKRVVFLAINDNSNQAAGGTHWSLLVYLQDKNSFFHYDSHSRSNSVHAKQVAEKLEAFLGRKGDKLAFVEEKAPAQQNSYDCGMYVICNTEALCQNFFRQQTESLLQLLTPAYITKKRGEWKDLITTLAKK
It is filed as functional.

A short description of assay [4]: HEK-293T viability loss after treatment – luminescence, T-cell screen hits, cytotoxicity control for TCR NF-kB inhibitor project, dose response (AID 489026).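 Further: cells exposed to compound about 14 hours before the viability readout.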 It is filed as functional, cell-based.
A short description of assay [5]: blockers of HIV-1 envelope-mediated cell-cell fusion – cherry-pick, dose response (AID 652057). The format is functional, cell-based.
Assay [6] is described as follows: blockers of HIV-1 ZM109 envelope-driven cell-cell fusion – HeLa effector, CEM target cells, luciferase, cherry-pick, dose response (AID 652058).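 Further: luciferase signal from HIV-1 Env mediated cell-cell fusion of effector and target cells.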 It is filed as functional, cell-based.
The nature of assay [7]: HIV-1 AD8 envelope cell-cell fusion blockers – cherry-pick, dose response (AID 652062).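 Further: luciferase signal from cell-cell fusion driven by HIV-1 clade B AD8 Env; potency is for inhibitors of fusion seen as a drop in luminescence.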 The format is functional, cell-based.

Calls of active or inactive are those of the source. Bounds are passed on as bounds.

Hexokinase, sequence (Q38C41 whole entry): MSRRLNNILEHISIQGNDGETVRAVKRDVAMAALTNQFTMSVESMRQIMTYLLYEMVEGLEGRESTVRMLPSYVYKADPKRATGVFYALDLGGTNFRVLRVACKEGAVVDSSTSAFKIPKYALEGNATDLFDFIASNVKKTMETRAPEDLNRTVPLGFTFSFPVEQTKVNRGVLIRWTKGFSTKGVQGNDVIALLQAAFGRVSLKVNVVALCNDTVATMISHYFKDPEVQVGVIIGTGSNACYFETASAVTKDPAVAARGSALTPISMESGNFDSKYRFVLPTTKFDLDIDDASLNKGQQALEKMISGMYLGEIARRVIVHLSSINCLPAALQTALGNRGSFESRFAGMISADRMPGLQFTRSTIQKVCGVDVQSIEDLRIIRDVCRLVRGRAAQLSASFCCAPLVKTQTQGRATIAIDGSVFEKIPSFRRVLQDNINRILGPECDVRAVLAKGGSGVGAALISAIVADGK

The term IC50 denotes the midpoint of a concentration-inhibition curve. Consider `COc1ccc(-c2cc3ccccc3[nH]2)cc1`, for which the IC50 is > 25 µM (inactive) on Hexokinase; 14.1 µM (active) on Caspase-3; 18.2 µM (active) in assay [1]; 34.5 µM (active) in [2]; 45.2 µM (active) in assay [3].
What is called AC50 is the midpoint of the concentration-response curve, whichever way the signal moves. For the compound `Clc1ccc2c(c1)C(C1=NCCN1)c1ccccc1CS2` (centres undefined), the IC50 in [4] is > 80 µM (inactive). For the same compound, the concentration at half-maximal activity (AC50) in assay [5] was 1.48 µM (active); in [6], 2.07 µM (active); in assay [7], 4.39 µM (active).
